One series is described as follows: Solubility. It counts as physicochemical. The conditions noted are these: for solubility in ethanol: in ethanol at 95° GL; for solubility in water (in words) / solubility: in water.
Series [1] is described as follows: Toxicity test (LD50, Miller and Tainter). As to conditions: mouse, in vivo, mice. The procedure:
The compounds according to the invention were subjected to toxicity tests. It was tested in batches of 10 mice by oral, intraperitoneal and, in some cases, intravenous administration and was calculated in accordance with Miller and Tainter's method (Proc. Soc. exper. Biol. Med., 1944, 57, 261).

Another series has as its system male Swiss mice. Put plainly: Rota-Rod test. Format: in vivo. The conditions noted are these: falls off rod in less than 2 minutes. The method, then: This test is carried out on male Swiss mice. The mouse is placed on a 3 cm diameter wooden rod rotating at 5 revolutions per minute. The mice which succeed in remaining on the rod for at least 3 minutes in successive tests are selected and gathered into groups of 10 for the test of each dose. If the mouse falls off the rod in less than 2 minutes, the tested compound is considered to be effective. The results are expressed by the effective dose DE50 according to N. W. Dunham and T. S. Miva--J. amer. pharm. Ass., 1957, 46, 208.
Background: The rotarod test checks motor coordination on a turning rod.

The test system of series [2] is pentamethylene tetrazole-induced tonic spasms. Put plainly: Anti-pentamethylene tetrazole activity. It counts as in vivo, male mice of the Swiss strain. The conditions noted are these: Mus musculus, male Swiss mice. The method, then: This test is carried out on a group of 10 male mice of the Swiss strain. 15 minutes after the subcutaneous injection of 125 mg/kg of pentamethylene tetrazole, the mice have tonic spasms of which the outcome is fatal.
For the test, the compound is administered orally 60 minutes before the injection of pentamethylene tetrazole. The animals are observed for 2 hours after administration of the pentamethylene tetrazole. In some particular cases, the tests were confirmed by intraperitoneal administration. The results are expressed by the effective dose DE50 (Goodman et Col.--J. Pharmacol. 108, 1953).
As Japanese Pat. No. 148,340 has been cited in copending application Ser. No. 916,651, filed June 19, 1978, comparisons between compounds of this closest prior art and the compounds of the invention were undertaken in the form of a controlled study.
The major consideration surrounded the similarity in the compounds, particularly in the substitution at the R position. The study compared ten compounds of the invention, which differed from the Japanese prior art only in that the compounds of the invention are alkylated at the R position while the prior art compounds are all hydrogenated at that position.
The compounds were tested for anti-pentamethylene tetrazole activity, the test described on p.

The mark [3] stands for this setting: ip, intraperitoneal, read-out: DL50 I.P.
Where [4] appears, read: intravenous, read-out: DL50 I.V.
[5] abbreviates: ip, intraperitoneal, 125 mg/kg s.c. pentamethylene tetrazole, read-out: anti-pentamethylene tetrazole activity DE50 I.P.
The mark [6] stands for this setting: oral, 60 min before 125 mg/kg s.c. pentamethylene tetrazole, read-out: anti-pentamethylene tetrazole activity DE50 P.O.

The text below walks through data of US4372975A, “Substituted 2-benzoyl-4-chloroglycinanilide derivatives, a process for their production, and their use as medicaments” (Pierre Fabre SA, priority 1977, dated 1983).

Structures can show the parent of a compound that is named as a salt. Where two headings read alike, the source gives them in different places.

The term solubility denotes the dissolved amount per volume that the medium holds. High values mean a readily soluble substance, low ones a poorly soluble substance.

`CN(C(=O)CNC1CCCCC1)c1ccc(Cl)cc1C(=O)c1ccccc1` [Example 11, N-Methyl-N'-cyclohexyl-(2-benzoyl-4-chloro)-glycinanilide hydrochloride]: the “solubility in dimethyl formamide” value in the series “Solubility” is on record as 1%. The molecule further displayed a solubility in ethanol in the series “Solubility” of 3%. Moreover, the “solubility in water (in words)” value in the series “Solubility” was “insoluble”. The LD50 in series [1] (setting [3]) came out at 305 mg/kg; in series [1] (setting [4]), 50 mg/kg; in series [1] (oral, read-out: DL50 oral), 1050 mg/kg. Moreover, the “Rota Rod DE50 V.O.” value in the series on male Swiss mice is listed as 27. Also, the values for the ED50 in series [2] (setting [5]) and in series [2] (setting [6]) were 1.25 mg/kg and 1.35 mg/kg, respectively.
As to `CN(CCO)CC(=O)N(C)c1ccc(Cl)cc1C(=O)c1ccccc1` [Example 14, N,N'-dimethyl-N'-(2'-hydroxyethyl)-(2-benzoyl-4-chloro)-glycinanilide], in the series “Solubility”, the “solubility in dimethyl formamide” value is listed as 20%. The same molecule yielded a solubility in ethanol in the series “Solubility” of 20%. Moreover, the “solubility in water (in words)” value in “Solubility” is reported as “insoluble”. Besides, the LD50 in series [1] (setting [3]) is 350 mg/kg; in series [1] (setting [4]), 55 mg/kg; in series [1] (oral, read-out: DL50 oral), 1200 mg/kg. Besides, the “Rota Rod DE50 V.O.” value with male Swiss mice amounted to 66. The ED50 was found to be 1.5 mg/kg in series [2] (setting [5]) and 1.7 mg/kg in series [2] (setting [6]).
On to `CN(C(=O)CN1CCOCC1)c1ccc(Cl)cc1C(=O)c1ccccc1` [Example 18, N-Methyl-2-morpholino-(2'-benzoyl-4'-chloro)-acetanilide hydrochloride], for which the solubility in the series “Solubility” stood at 100 mg/mL. Further, the LD50 was 750 mg/kg in series [1] (setting [3]); 103 mg/kg in series [1] (setting [4]); 1700 mg/kg in series [1] (oral, read-out: DL50 oral). Besides, the “Rota Rod DE50 V.O.” value in the series with male Swiss mice is reported as 60. Besides, the ED50 in series [2] (setting [5]) was determined as 1.4 mg/kg; in series [2] (setting [6]) it was 3.3 mg/kg.
As to `C=C(C)CNCC(=O)N(C)c1ccc(Cl)cc1C(=O)c1ccccc1` [Example 19, N-Methyl-N'-(2'-methylallyl)-(2-benzoyl-4-chloro)-glycinanilide hydrochloride], in “Solubility”, the solubility came out at 50 mg/mL. The LD50 in series [1] (setting [3]) was found to be 500 mg/kg; in series [1] (setting [4]) it was 60 mg/kg; in series [1] (oral, read-out: DL50 oral), 1500 mg/kg. The “Rota Rod DE50 V.O.” value with male Swiss mice came out at 21. The results for the ED50 in series [2] (setting [5]) and in series [2] (setting [6]) were 1.1 mg/kg and 1.7 mg/kg, respectively.
